According to PMC12040169 (PLOS Biology, 2025):

test: in vitro; conditions: human, hela cells, % viability

Going from `OCc1cccc(-c2cncc(Nc3ccccc3)n2)c1` [CBK065576] to `CC(=O)Nc1cccc(-c2cc(Nc3ccc(N4CCN(Cc5ccccc5)CC4)cc3)ncn2)c1` [CBK037709], the viability at 28.5 h, 10 µM falls from 97.4% to 81.8%.

First: CCn1c(SCC(=O)Nc2ccc(Br)cc2F)nnc1-c1ccc(OC)cc1 [CBK266172]
Second: COc1ccc(-c2n[nH]cc2/C=N/NC(=O)c2cc(Br)ccc2O)c(OC)c1 [CBK262067]
The viability at 28.5 h, 10 µM of the first is higher: 100% for the first, 85.9% for the second.

Going from `COc1ccc(C(=O)N2Cc3nc[nH]c3C[C@H]2c2nc(-c3ccc(OC)cc3)no2)cc1` [CBK288966] to `COc1ccc(-n2nc3cc(C)c(NC(=S)NC(=O)c4oc5ccccc5c4C)cc3n2)cc1` [CBK264188], the viability at 28.5 h, 10 µM falls from 107% to 103%.

First: Cc1ccc(S(=O)(=O)NC2c3cccc4cccc(c34)C2Sc2nnc(N)s2)cc1 (stereo not drawn) [CBK265835]
Second: CC(C)c1ccc(S(=O)(=O)NCCc2ccccc2)cc1 [CBK044426]
The viability at 28.5 h, 10 µM of the first is higher: 107% for the first, 94.1% for the second.

Compared with `CC(C)(CO)Cn1c(=O)[nH]c2ncc(-c3ccco3)nc21` [CBK064721], `Cc1cccn2cc(CC(=O)OCC(=O)NC(C)(C)C)nc12` [CBK304966] is higher in viability at 28.5 h, 10 µM: 98.8% for the first, 110% for the second.

First: O=C(O)c1ccc(NS(=O)(=O)c2ccccc2)cc1O [CBK023181]
Second: O=C(O)c1cc(S(=O)(=O)NCc2ccccc2)ccc1Br [CBK261768]
The viability at 28.5 h, 10 µM of the first is lower: 96.1% for the first, 96.9% for the second.

Compared with `CN(CCN1CCCCC1)C(=O)C1(c2ccc(F)cc2)CC1` [CBK282178], `CC(CN1CCCCC1)OC(=O)C(c1ccccc1)c1ccccc1` (stereo not drawn) [CBK265237C] is higher in viability at 28.5 h, 10 µM: 95.4% for the first, 104% for the second.

First: O=C(Nc1nccs1)c1nccnc1-c1ccc(COc2ccccc2)cc1 [CBK050839]
Second: O=C(Cc1cccc2ccccc12)Nc1ccccc1C(=O)O [CBK266325]
The viability at 28.5 h, 10 µM of the first is lower: 95.6% for the first, 100% for the second.

First: N#CCCN(C(=O)NCc1cccc(C(F)(F)F)c1)C1CCCCC1 [CBK156350]
Second: NCCCN(Cc1ccco1)C1CCCC1 [CBK268856]
The viability at 28.5 h, 10 µM of the first is lower: 96.8% for the first, 109% for the second.

First: Cc1nc([N+](=O)[O-])c(SCC(O)CN2CCCCC2)[nH]1 (stereo not drawn) [CBK261727]
Second: Cc1cc(NC(=O)C(C)N2CCN(S(=O)(=O)c3ccc(C4CCCCC4)cc3)CC2)on1 (stereo not drawn) [CBK295639]
The viability at 28.5 h, 10 µM of the first is lower: 88.7% for the first, 101% for the second.

Compared with `CCc1nc2c(OCC3CCCCC3)cccn2c1N(C=O)Cc1ccc(OC)cc1` [CBK147811], `COc1ccc([C@@]23CC[C@@H](NC(=O)Nc4ccc5ccccc5c4)C[C@@H]2N(C)CC3)cc1OC` [CBK034181T] is higher in viability at 28.5 h, 10 µM: 100% for the first, 102% for the second.

Going from `COc1ccccc1CNC(=O)c1ccc2nc(C)c(N(C)C(=O)c3cccs3)n2c1` [CBK146546] to `CCCC(=O)NC(c1ccc(OC)c(OC)c1)c1c(O)ccc2ccccc12` (stereo not drawn) [CBK263269], the viability at 28.5 h, 10 µM rises from 86.9% to 95.2%.

Compared with `Cc1ccc(C)c(C2CCCN2C(=O)C2CN(C(=O)C3CCN(C)CC3)C2)c1` (stereo not drawn) [CBK286022], `O=C(C1CC1)N1CCCC1c1nc(-c2ccc(F)cc2)n[nH]1` (stereo not drawn) [CBK283934] is higher in viability at 28.5 h, 10 µM: 97.5% for the first, 102% for the second.

Going from `O=C(Nc1ccc(O)cc1)c1ccc2c(c1)C(=O)N(c1cccc(N3C(=O)c4ccc(C(=O)Nc5ccc(O)cc5)cc4C3=O)n1)C2=O` [CBK261334] to `CCn1c2ccccc2c2cc(CN3CCN(S(=O)(=O)c4ccc(NC(C)=O)cc4)CC3)ccc21` [CBK264248], the viability at 28.5 h, 10 µM falls from 102% to 94.1%.

Going from `CCN(CC)CCN(C)Cc1ccccc1Br` [CBK026593] to `CC(C)C(=O)NCCn1nc(-c2ccccc2F)cc1CN(C)C` [CBK281693], the viability at 28.5 h, 10 µM falls from 92.8% to 91.4%.

Compared with `CSC1=Nc2cc(Cl)ccc2SCC1` [CBK019829], `CC(c1ccc(F)c(F)c1)N(C)C(=O)Cn1[nH]c(=O)ccc1=O` (stereo not drawn) [CBK305810] is lower in viability at 28.5 h, 10 µM: 98.1% for the first, 81.2% for the second.

Going from `Nc1nc(CSc2nnc(-c3ccco3)n2-c2ccccc2)cs1` [CBK269693] to `Oc1ccc(-c2n[nH]cc2-c2cnn(-c3ccccc3)c2)c(O)c1O` [CBK266948], the viability at 28.5 h, 10 µM rises from 97.9% to 104%.

Compared with `CC(C)S(=O)(=O)n1ccn(-c2cccc(C(F)(F)F)c2)c1=O` [CBK106577], `O=C(Nc1ccncc1)c1cnc2cc(C(F)(F)F)ccc2c1O` [CBK116633T] is higher in viability at 28.5 h, 10 µM: 88% for the first, 92.1% for the second.

Compared with `Cc1nc2cc(OCc3nc(C(=O)N(CCO)CCO)co3)ccc2s1` [CBK307684], `Cc1cc(Oc2ccccc2)nc(Oc2ccc(OCC(N)=O)nn2)n1` [CBK266687] is higher in viability at 28.5 h, 10 µM: 89.9% for the first, 98.5% for the second.

First: Cc1ccccc1OCc1nc(C#N)c(NCc2ccc3c(c2)OCO3)o1 [CBK073372]
Second: Cc1nn(C)c(C)c1NC(=O)COc1ccc(C#N)cc1 [CBK306011]
The viability at 28.5 h, 10 µM of the first is higher: 109% for the first, 87.5% for the second.

Going from `O=C(O)C1CCCCC1C(=O)Nc1cccc2ccccc12` (stereo not drawn) [CBK261569] to `Cc1ccc(NC(=O)c2ccccc2)s1` [CBK086724], the viability at 28.5 h, 10 µM falls from 101% to 95.2%.

Compared with `C=CCn1ncc(CN(C)Cc2nc3ccccc3[nH]2)c1C` [CBK283169], `CCC(CN1CCOCC1)n1cncc1-c1[nH]c2ccccc2c1C` (stereo not drawn) [CBK281800] is higher in viability at 28.5 h, 10 µM: 96% for the first, 106% for the second.

Going from `CN1CC(c2ccccc2)CC2(CCN(CCCn3cnnn3)CC2)C1` (stereo not drawn) [CBK306522] to `O=c1cc(NCCCN2CCN(Cc3ccccc3)CC2)c2ccccc2o1` [CBK011079], the viability at 28.5 h, 10 µM falls from 95% to 81%.

First: CN1CCC(N2CCN(C(=O)c3ccc(-c4ccc(S(C)(=O)=O)cc4)nc3)CC2)CC1 [CBK158862]
Second: Cc1cccc(N2CCN(C(=O)C3CCN(Cc4cccc(OCc5ccccc5)c4)CC3)CC2)c1C [CBK264328G]
The viability at 28.5 h, 10 µM of the first is lower: 91.6% for the first, 94.3% for the second.

First: CC(Cc1cccs1)C(=O)N1CCn2cnnc2C1 (stereo not drawn) [CBK282109]
Second: O=C(Cn1c(=O)c2nncn2c2ncccc21)NC1CCCCCC1 [CBK288600]
The viability at 28.5 h, 10 µM of the first is higher: 96% for the first, 92.3% for the second.

Compared with `O=C(O)c1cc(-n2c(S)nnc2-c2ccncc2)ccc1Cl` [CBK268989], `CC(C)(C)c1ccc(C(=O)CC(C(=O)O)N2CCN(c3cccc(Cl)c3)CC2)cc1` (stereo not drawn) [CBK077385] is lower in viability at 28.5 h, 10 µM: 94.9% for the first, 90.9% for the second.

Going from `O=C1CCC(=O)N1CCN1CC(O)CC1c1cc(F)ccc1F` (stereo not drawn) [CBK306390] to `COc1ccc(F)cc1-c1cccc(CC2(C(=O)NCCc3ccccc3)CCOCC2)c1` [CBK285562], the viability at 28.5 h, 10 µM falls from 92.8% to 84.5%.

Going from `Cc1cccc(C(=O)N2CCCCC2C)c1` (stereo not drawn) [CBK074052] to `C[C@@H]1C[C@H](C)CN(C(C(=O)O)c2c[nH]c3ccccc23)C1` (stereo partly drawn) [CBK286868], the viability at 28.5 h, 10 µM falls from 118% to 94.3%.

Compared with `Cc1ccc(S(=O)(=O)N(CC(=O)NCc2ccco2)c2cc(C)cc(C)c2)cc1` [CBK263982], `N=C1NC(=O)/C(=C/c2ccc(OC(=O)c3cccc([N+](=O)[O-])c3)cc2)S1` [CBK263606] is higher in viability at 28.5 h, 10 µM: 86.2% for the first, 100% for the second.

Compared with `CSc1ccc(CN(C)c2cncc(-n3cccn3)n2)cc1` [CBK298326], `COc1ccc(C(=O)N2CCc3ccccc32)c(OC)n1` [CBK200281] is higher in viability at 28.5 h, 10 µM: 91.2% for the first, 106% for the second.

For `Nc1nc(SCC(=O)NCCCO)nc2sc3c(c12)CCC3` [CBK264952], the viability at 28.5 h, 10 µM was 88.7%.

same assay, conditions: human, hela cells, % viability, bulk resorufin, single well

Going from `CCc1cc(C)cc(OCCOc2ccccc2C=C2C(=O)NC(=S)NC2=O)c1` [CBK263579] to `O=C1NC(=S)NC(=O)C1=CNc1ccc(F)c(Cl)c1` [CBK262391], the viability at 28.5 h, 10 µM falls from 120% to 118%.
